Values after ≈ are worked out from the molar mass of the structure shown. Where two headings read alike, the source gives them in different places.
Columns and labels:
Format in all cases: cell-based
[1] = test system: Staphylococcus aureus 0119; assay: Minimum inhibitory concentration (MIC), Staphylococcus aureus 0119
Excerpt: (§1) The minimum inhibitory concentration (MIC) of the compounds of the present invention is illustrated in Table 1.
(§2) *Macrolide registant strain A group (clinical isolates of erythromycin,
(§3) oleandomycin and 16membered macrolide antibiotics registant strains)

[2] = test system: Staphylococcus aureus 0116; assay: Minimum inhibitory concentration (MIC), Staphylococcus aureus 0116
Excerpt: as §1, §2, §3

[3] = test system: Staphylococcus aureus 0127; assay: Minimum inhibitory concentration (MIC), Staphylococcus aureus 0127
Excerpt: as §1, §2, §3

[4] = test system: Streptococcus pyogenes N.Y.5; assay: Minimum inhibitory concentration (MIC), Streptococcus pyogenes N.Y.5
[5] = test system: Streptococcus pyogenes 1022; assay: Minimum inhibitory concentration (MIC), Streptococcus pyogenes 1022
Excerpt: as §1, §2, §3

[6] = test system: Staphylococcus aureus ATCC6538p; assay: Minimum inhibitory concentration (MIC), Staphylococcus aureus ATCC6538p
[7] = test system: Staphylococcus aureus MS353AO; assay: Minimum inhibitory concentration (MIC), Staphylococcus aureus MS353AO; settings: macrolide resistant strain A group
Excerpt: as §1, §2, §3

[8] = test system: Staphylococcus aureus MS353; assay: Minimum inhibitory concentration (MIC), Staphylococcus aureus MS353
[9] = Staphylococcus aureus 0116, macrolide resistant strain A group, read-out: MIC
[10] = Staphylococcus aureus 0127, macrolide resistant strain A group, read-out: MIC
[11] = Streptococcus pyogenes 1022, macrolide resistant strain A group, read-out: MIC

`CCC1OC(=O)CC(O)C(C)C(OC2OC(C)CC(N(C)C)C2O)C(CC=O)CC(C)C(=O)/C=C/C(C)=C/C1COC1OC(C)CC(OC)C1OC` (centres unmarked) [R1 = H, R2 = H, 4', 4"-di-deoxy-desmycosin] showed an MIC ([1]; Staphylococcus aureus, 0119) of 12.5 µg/mL (≈ 16.9 µM), an MIC [2, 9] of 3.1 µg/mL (≈ 4.19 µM) and an MIC [3, 10] of 12.5 µg/mL (≈ 16.9 µM). The MIC [4] was ≤ 0.05 µg/mL, the MIC [5, 11] was 25 µg/mL (≈ 33.8 µM) and the MIC [6] was 0.4 µg/mL (≈ 0.541 µM). It also gave an MIC [7] of 50 µg/mL (≈ 67.6 µM) and an MIC [8] of 0.2 µg/mL (≈ 0.27 µM).

With `CCC1OC(=O)CC(O)C(C)C(OC2OC(C)C(O)C(N(C)C)C2O)C(CC=O)CC(C)C(=O)/C=C/C(C)=C/C1COC1OC(C)CC(OC)C1OC` (centres unmarked) [R1 = OH, R2 = H, 4"-deoxy-desmycosin] the MIC ([1]; Staphylococcus aureus 0119, macrolide resistant strain A group, read-out: MIC) was 1.6 µg/mL (≈ 2.12 µM), the MIC [2, 9] was 1.6 µg/mL (≈ 2.12 µM) and the MIC ([3]; Staphylococcus aureus, 0127) was 6.3 µg/mL (≈ 8.33 µM). The MIC [4] was ≤ 0.05 µg/mL, the MIC [5, 11] was 3.1 µg/mL (≈ 4.1 µM) and the MIC [6] was 0.4 µg/mL (≈ 0.529 µM). The MIC [7] was 6.3 µg/mL (≈ 8.33 µM) and the MIC [8] was 0.4 µg/mL (≈ 0.529 µM).

For `CC[C@H]1OC(=O)C[C@@H](O)[C@H](C)[C@@H](O[C@@H]2O[C@H](C)[C@@H](O[C@H]3C[C@@](C)(O)[C@@H](O)[C@H](C)O3)[C@H](N(C)C)[C@H]2O)[C@@H](CC=O)C[C@@H](C)C(=O)/C=C/C(C)=C/[C@@H]1CO[C@@H]1O[C@H](C)[C@@H](O)[C@@H](OC)[C@H]1OC` [Tylosin, tylosin, reference compound], the MIC ([1]; Staphylococcus aureus, 0119) was > 100 µg/mL, the MIC ([2]; Staphylococcus aureus, 0116) was > 100 µg/mL and the MIC ([3]; Staphylococcus aureus, 0127) was > 100 µg/mL. For the same compound, the MIC [4] was 0.2 µg/mL (≈ 0.218 µM), the MIC ([5]; Streptococcus pyogenes, 1022) was > 100 µg/mL and the MIC [6] was 0.8 µg/mL (≈ 0.873 µM). The MIC [7] was > 100 µg/mL and the MIC [8] was 1.6 µg/mL (≈ 1.75 µM).

`CCC1OC(=O)CC(O)C(C)C(OC2OC(C)CC(N(C)C)C2O)C(CC=O)CC(C)C(=O)/C=C/C(C)=C/C1COC1OC(C)C(O)C(OC)C1OC` (centres unmarked) [R1 = H, R2 = OH, 4'-deoxy-desmycosin] was tested, and the MIC ([1]; Staphylococcus aureus, 0119) was 6.3 µg/mL (≈ 8.33 µM), the MIC [2, 9] was 3.1 µg/mL (≈ 4.1 µM) and the MIC [3, 10] was 12.5 µg/mL (≈ 16.5 µM). The MIC [4] was 0.1 µg/mL (≈ 0.132 µM), the MIC [5, 11] was 3.1 µg/mL (≈ 4.1 µM) and the MIC [6] was 0.8 µg/mL (≈ 1.06 µM). The MIC [7] was 50 µg/mL (≈ 66.1 µM) and the MIC [8] was 0.8 µg/mL (≈ 1.06 µM).
